Tested on: HLA-DQ2
Experiment: Inhibition of IL-2 secretion by TCR transductants stimulated by α-gliadin peptides presented by HLA-DQ2 expressing K562 cells (ELISA)
Format: cell-based, human
Settings: for DQ2 IL2 Maximal % Inhibition: IL-2 secretion, at the concentration given in brackets; for concentration at which the compound exhibited maximum % inhibition (DQ2 IL2): from dose-response curve, figure in brackets in the cell
Method: Three commercially available analogues of the DQ2 binding molecules of the invention were tested for their ability to inhibit stimulation of T cell receptor (TCR) transductants in the presence of HLA-DQ2 expressing cells presenting known α-gliadin epitopes.
Using a previously published in vitro assay (Ostrov D, et al. Methyldopa blocks MHC class II binding to disease specific antigens in autoimmune diabetes. J Clin Invest. 2018:128(5)) we measured the ability of these DQ2 binding analogues to inhibit interleukin-2 (IL-2) secretion by TCR transductants stimulated by α-gliadin peptides presented by HLA-DQ2. Individual TCR transductants (recognizing α I-gliadin or α II-gliadin) were cultured with a gliadin peptide plus the small molecule analogues in the presence of HLA-DQ2 expressing K562 cells serving as antigen presenting cells. TCR transductants cultured with no gliadin peptide served as the negative control, and incubation with an anti-CD3 antibody (eBioscience; clone 2C11) served as a positive control for the TCR transductant. Secreted IL-2 in the culture supernatant was measured using a highly sensitive enzyme-linked immunosorbent assay (ELISA). […] Assays for effects on cell viability and for specificity, assayed in the absence of gliadin peptide or in the presence of a stimulating anti-CD3 antibody, were performed. A=71-100%; B=41-70%; C=11-40%; D=0-10%, NT=Not tested.

[1] = TCR transductants (α I- or α II-gliadin) + gliadin peptide + HLA-DQ2 K562 cells
[2] = Table 2, TCR transductants + gliadin peptide + HLA-DQ2 K562 cells

Cn1nc2c(cc1=O)CC(NC(=O)c1cccc3ccccc13)CC2 (stereo not shown) [Compound 22] was tested, and the “DQ2 IL2 Maximal % Inhibition” value [1] was “C (C=11-40%)” and the “concentration at which the compound exhibited maximum % inhibition (DQ2 IL2)” value was 200 µM.
With CC(C)c1ccc(C(=O)NC2CCc3nn(CC4CC4)c(=O)cc3C2)cc1 (stereo not shown) [Compound 45] the “DQ2 IL2 Maximal % Inhibition” value [1] was “A (A=71-100%)” and the “concentration at which the compound exhibited maximum % inhibition (DQ2 IL2)” value was 200 µM.
In the case of Cn1nc2c(cc1=O)CC(NC(=O)c1cccc(C(F)(F)F)c1)CC2 (stereo not shown) [Compound 63], the “DQ2 IL2 Maximal % Inhibition” value [2] is reported as “A (A=71-100%)” and the “concentration at which the compound exhibited maximum % inhibition (DQ2 IL2)” value (Table 2) is reported as 200 µM.
With Cn1nc2c(cc1=O)CC(NC(=O)c1ccc(Br)cc1)CC2 (stereo not shown) [Compound 34] the “DQ2 IL2 Maximal % Inhibition” value [1] was “A (A=71-100%)” and the “concentration at which the compound exhibited maximum % inhibition (DQ2 IL2)” value was 200 µM.
With CCC(=O)NC1CCc2n[nH]c(=O)cc2C1 (stereo not shown) [Compound 7] the “DQ2 IL2 Maximal % Inhibition” value [1] was “D (D=0-10%)” and the “concentration at which the compound exhibited maximum % inhibition (DQ2 IL2)” value was 200 µM.
CC(C)c1ccc(C(=O)NC2CCc3nn(C4CCCC4)c(=O)cc3C2)cc1 (stereo not shown) [Compound 59] was tested, and the “DQ2 IL2 Maximal % Inhibition” value [1] was “A (A=71-100%)” and the “concentration at which the compound exhibited maximum % inhibition (DQ2 IL2)” value was 200 µM.
CC(C)c1ccc(C(=O)NC2CCc3nn(C4CCCCC4)c(=O)cc3C2)cc1 (stereo not shown) [Compound 54] was tested, and the “DQ2 IL2 Maximal % Inhibition” value [1] was “A (A=71-100%)” and the “concentration at which the compound exhibited maximum % inhibition (DQ2 IL2)” value was 200 µM.
With CC(=O)NC1CCc2nn(C)c(=O)cc2C1 (stereo not shown) [Compound 18] the “DQ2 IL2 Maximal % Inhibition” value [1] was “C (C=11-40%)” and the “concentration at which the compound exhibited maximum % inhibition (DQ2 IL2)” value was 100 µM.
CCCCC(=O)NC1CCc2n[nH]c(=O)cc2C1 (stereo not shown) [Compound 9] was tested, and the “DQ2 IL2 Maximal % Inhibition” value [1] was “C (C=11-40%)” and the “concentration at which the compound exhibited maximum % inhibition (DQ2 IL2)” value was 100 µM.
With CC(C)Oc1ccc(C(=O)NC2CCc3nn(C)c(=O)cc3C2)cc1 (stereo not shown) [Compound 62] the “DQ2 IL2 Maximal % Inhibition” value [2] was “A (A=71-100%)” and the “concentration at which the compound exhibited maximum % inhibition (DQ2 IL2)” value (Table 2) was 200 µM.
O=C(NC1CCc2n[nH]c(=O)cc2C1)c1ccccc1 (stereo not shown) [Compound 1] was tested, and the “DQ2 IL2 Maximal % Inhibition” value [1] was “C (C=11-40%)” and the “concentration at which the compound exhibited maximum % inhibition (DQ2 IL2)” value was 50 µM.
In the case of Cc1ccc(C(=O)NC2CCc3nn(C)c(=O)cc3C2)cc1 (stereo not shown) [Compound 20], the “DQ2 IL2 Maximal % Inhibition” value [1] is reported as “B (B=41-70%)” and the “concentration at which the compound exhibited maximum % inhibition (DQ2 IL2)” value is reported as 200 µM.
Cn1nc2c(cc1=O)CC(NC(=O)c1ccccc1)CC2 (stereo not shown) [Compound 16, N-(2-methyl-3-oxo-5,6,7,8-tetrahydrocinnolin-6-yl)benzamide] was tested, and the “DQ2 IL2 Maximal % Inhibition” value [1] was “B (B=41-70%)” and the “concentration at which the compound exhibited maximum % inhibition (DQ2 IL2)” value was 100 µM.
CCCn1nc2c(cc1=O)CC(NC(=O)c1ccc(CC)cc1)CC2 (stereo not shown) [Compound 37] was tested, and the “DQ2 IL2 Maximal % Inhibition” value [1] was “B (B=41-70%)” and the “concentration at which the compound exhibited maximum % inhibition (DQ2 IL2)” value was 200 µM.
For CCc1ccc(C(=O)NC2CCc3n[nH]c(=O)cc3C2)cc1 (stereo not shown) [Compound 60], the “DQ2 IL2 Maximal % Inhibition” value [2] was “A (A=71-100%)” and the “concentration at which the compound exhibited maximum % inhibition (DQ2 IL2)” value (Table 2) was 200 µM.
For CCn1nc2c(cc1=O)CC(NC(=O)c1ccc(C(C)C)cc1)CC2 (stereo not shown) [Compound 40], the “DQ2 IL2 Maximal % Inhibition” value [1] was “B (B=41-70%)” and the “concentration at which the compound exhibited maximum % inhibition (DQ2 IL2)” value was 200 µM.
For CCCc1ccc(C(=O)NC2CCc3n[nH]c(=O)cc3C2)cc1 (stereo not shown) [Compound 3], the “DQ2 IL2 Maximal % Inhibition” value [1] was “B (B=41-70%)” and the “concentration at which the compound exhibited maximum % inhibition (DQ2 IL2)” value was 100 µM.
For CCc1ccc(C(=O)NC2CCc3nn(CC)c(=O)cc3C2)cc1 (stereo not shown) [Compound 36], the “DQ2 IL2 Maximal % Inhibition” value [1] was “B (B=41-70%)” and the “concentration at which the compound exhibited maximum % inhibition (DQ2 IL2)” value was 200 µM.
For CC(C)C(=O)NC1CCc2n[nH]c(=O)cc2C1 (stereo not shown) [Compound 15], the “DQ2 IL2 Maximal % Inhibition” value [1] was “C (C=11-40%)” and the “concentration at which the compound exhibited maximum % inhibition (DQ2 IL2)” value was 100 µM.
In the case of Cn1nc2c(cc1=O)CC(NC(=O)C1CCCCC1)CC2 (stereo not shown) [Compound 19], the “DQ2 IL2 Maximal % Inhibition” value [1] is reported as “B (B=41-70%)” and the “concentration at which the compound exhibited maximum % inhibition (DQ2 IL2)” value is reported as 100 µM.

Source: patent US11939300B2, “Compounds and methods for treating autoimmune disorders by targeting HLA-DQ2” (ImmunoMolecular Therapeutics, Inc., priority 2020, dated 2024)
